Reference: patent US20250295681A1, “CANDIDA ANTIFUNGAL COMPOSITION COMPRISING LIPOTEICHOIC ACID” (SEOUL NATIONAL UNIVERSITY R&DB FOUNDATION, priority 2022, published 2025)

System: C. albicans SC5314
Test: Surface adhesion of C. albicans with simultaneous LreLTA and Hsp70 inhibitor VER-155008, crystal violet staining
Format: cell-based, Candida albicans
Settings: SC5314 1×10^4 CFU/mL; LreLTA 30 μg/mL plus VER-155008 1, 10, 50 and 100 μM simultaneously; 24 hours; FIG. 4
Description: According to previous research, Hsp70 is known to play a role in controlling overall virulence factors and drug resistance in C. albicans, and thus, the inventors of the present disclosure conducted experiments by utilizing VER-155008, which is an Hsp70 inhibitor.
In order to determine the effect of VER-155008 on reducing C. albicans surface adhesion by LreLTA, C. albicans SC5314 strain was cultured in YPD medium and prepared at 1×10^4 CFU/mL, and LreLTA at a single concentration of 30 μg/mL and VER-155008 at concentrations of 1, 10, 50 and 100 μM were simultaneously treated. After culturing for 24 hours, the degree of adhesion maintenance to the surface was compared by 0.1% crystal violet staining.

In the case of `N#Cc1ccc(COC[C@H]2O[C@@H](n3c(NCc4ccc(Cl)c(Cl)c4)nc4c(N)ncnc43)[C@H](O)[C@@H]2O)cc1` [VER-155008], the “effect on the surface adhesion reducing efficacy of LreLTA” value is reported as “the efficacy of reducing the surface adhesion of LreLTA was decreased”.
